{"source": "patent US11014891B2", "about": "“Reduction-triggered antibacterial sideromycins” (priority 2013, dated 2021)", "assay_in_all_cases": "agar diffusion antibacterial susceptibility assay", "key": {"B. subtilis ATCC 6633": {"tested_on": "B. subtilis ATCC 6633", "format": "cell-based, Bacillus subtilis", "conditions": "ciprofloxacin in H2O, concentration per footnote mark c", "from_the_text": "(§1) Representative Gram-positive strains included Bacillus subtilis, Staphylococcus aureus and Micrococcus luteus. The Gram-negative strains studied included Pseudomonas aeruginosa (a wild type K799/wt and a penetration mutant strain K799/61), Escherichia coli, and Acinetobacter baumannii."}, "S. aureus SG 511": {"tested_on": "S. aureus SG 511", "format": "cell-based, Staphylococcus aureus", "conditions": "ciprofloxacin in H2O, concentration per footnote mark b", "from_the_text": "as §1"}, "M. luteus ATCC 10240": {"tested_on": "M. luteus ATCC 10240", "format": "cell-based, Micrococcus luteus", "conditions": "ciprofloxacin in H2O, concentration per footnote mark b", "from_the_text": "as §1"}, "E. coli X580": {"tested_on": "E. coli X580", "format": "cell-based, Escherichia coli", "conditions": "ciprofloxacin in H2O, concentration per footnote mark d", "from_the_text": "as §1"}, "A. baumannii ATCC 17961": {"tested_on": "A. baumannii ATCC 17961", "format": "cell-based, Acinetobacter baumannii", "conditions": "ciprofloxacin in H2O, concentration per footnote mark b; 100 μM 2,2′-bipyridine", "from_the_text": "The siderophore-ciprofloxacin conjugates 13 and 23 were first evaluated for their ability to inhibit the growth of bacteria using the agar well diffusion test. Representative Gram-positive strains included Bacillus subtilis, Staphylococcus aureus and Micrococcus luteus. The Gram-negative strains studied included Pseudomonas aeruginosa (a wild type K799/wt and a penetration mutant strain K799/61), Escherichia coli, and Acinetobacter baumannii."}}}
{"smiles": "O=C(O)c1cn(C2CC2)c2cc(N3CCNCC3)c(F)cc2c1=O", "note": "[Ciprofloxacin, ciprofloxacin]", "values": [{"measurement": "Diameter of growth inhibition zones", "setting": "B. subtilis ATCC 6633", "value": "28^c mm"}, {"measurement": "Diameter of growth inhibition zones", "setting": "S. aureus SG 511", "value": "28^b mm"}, {"measurement": "Diameter of growth inhibition zones", "setting": "M. luteus ATCC 10240", "value": 12, "unit": "P^b"}, {"measurement": "Diameter of growth inhibition zones", "setting": "E. coli X580", "value": "31^d mm"}, {"measurement": "Diameter of growth inhibition zones", "setting": "A. baumannii ATCC 17961", "value": 15, "unit": "p^b"}]}
